These are literature values, as cited in patent US6642211B2 (Wisconsin Alumni Research Foundation, priority 2001, dated 2003).

The structures appear in SMILES notation.

Data set [1] deals with recurrent malignant glioma.
In data set [2] the test system is human tumor xenografts, including malignant glioma. As to conditions: wide variety of human tumor xenografts. In general terms: A xenograft is tissue or cells of one species grown in another, often human tumour cells in immunodeficient mice.
Data set [3] relates to high grade gliomas and malignant melanoma.
[4] abbreviates: prolonged infusions of up to 30 days, patients with leukemia.

As to `Cc1cn([C@H]2C[C@H](O)[C@@H](CO)O2)c(=O)[nH]c1=O` [Thymidine], in data set [1] (Phase I), the “protection against carboplatin myelotoxicity” value is “protect against dose-limiting carboplatin myelotoxicity”. Also, the “effect on pharmacokinetics or protein binding of carboplatin” value in data set [1] (thymidine-carboplatin interaction) is on record as “not to affect”. The “cell killing in vitro” value in the data set with neoplastic cells is recorded as “preferentially kills neoplastic cells”. Also, in the data set on leukemia (setting [4]), the anti-cancer activity result was “anti-cancer activity” and the myelotoxicity entry is listed as “significant myelotoxicity”. Besides, the efficacy entry in the data set on leukemia (shorter infusions of high dose thymidine) was “effective”. Also, in data set [2], the tumor regression entry is on record as “induces partial regression”.
In the case of `Cn1nnc2c(C(N)=O)ncn2c1=O` [Temozolamide], the dose-limiting toxicity entry in data set [3] (human, in vivo) is recorded as “related to myelosuppression”. In addition, the clinical efficacy result in data set [3] (treatment of high grade gliomas and malignant melanoma) is recorded as “demonstrated clinical efficacy”.
